Read-outs that look alike come from different tables or passages of the source. Marks after values point to notes of the source that are not given here.
What was measured:
naive female rats = experiment: Cystometry test system on narcotized naive rats (suppression of spontaneous bladder contractions); format: in vivo, rat; conditions: i.v. cumulative; for minimal effective dose: Rattus norvegicus, iv, 10 min, read-out: Lowest dose at which for the first time contractions were absent over a period of 10 minutes
Description: The cystometric investigation on naive female rats was carried out in accordance with the method of Kimura et al. (Kimura et al., 1996, Int. J. Urol. 3: 218-227). The abdomen of narcotized, ventilated rats is opened up and the ureter is ligated. The urine is drained from the kidneys. A catheter is inserted into the bladder and fixed. […] After stable starting values have been reached, the test substance is administered i.v. in a cumulative manner. Influencing of the bladder function manifests itself via suppression of the spontaneous contractions. In this context, the absence of contractions over a period of 10 min is a parameter for the suppression.
With all the substances listed here, a suppression of the spontaneous contractions was measurable in the rats, table 3 showing the mean of the lowest dose of at least 2 experiments at which for the first time contractions were absent over a period of 10 minutes.
With all the substances listed here, a suppression of the spontaneous contractions was measurable in the rats, table 4 showing the mean of the lowest dose of at least 2 experiments at which for the first time contractions were absent over a period of 10 minutes.
With all the substances listed here, a suppression of the spontaneous contractions was measurable in the rats, table 5 showing the mean of the lowest dose of at least 2 experiments at which for the first time contractions were absent over a period of 10 minutes. […]

[1] = test system: female Sprague-Dawley rats; experiment: Cystometry test system on conscious damaged rats (oxyhaemoglobin-induced bladder hyperactivity, urgency incontinence model)
Description: This model simulates the urgency incontinence in an animal model; the oxyhaemoglobin (OxyHb) employed induces a bladder hyperactivity.
Three days after implantation of bladder and venous catheters, the animals were investigated in the freely mobile, conscious state. The bladder catheter was connected to a pressure transducer and an injection pump. The animals were placed in metabolism cages which allowed measurement of the volume of urine. Physiological saline solution was infused into the emptied bladder (10 ml/h) and the bladder pressure and micturition volume were recorded continuously. After a stabilization phase, a 20 minute phase, which was characterized by normal, reproducible micturition cycles, was recorded. The following parameters, inter alia, were determined: • threshold pressure (TP, bladder pressure immediately before micturition), • bladder capacity (BC, residual volume after preceding micturition plus volume of the infused solution during the filling phase), • intercontraction interval (ICI, the interval of time between micturitions) • micturition pressure (MP, maximum bladder pressure during a micturition).
After three reproducible micturition cycles had been recorded as the pre-value, 2.5×10^−4 M oxyhemoglobin in the vehicle=0.9% NaCl were infused into the bladder. The action on the cystometric parameters was recorded for about 20 minutes. At the action maximum the mean of 3 micturition cycles was determined and shown as a percentage change compared with the pre-value (table 8).

[2] = test system: naive, female Sprague-Dawley rats; experiment: Cystometry test system on conscious naive rats; conditions: for action on bladder regulation (in words): conscious naive rats, i.v.
Description: Three days after implantation of bladder and venous catheters, the animals were investigated in the freely mobile, conscious state. The bladder catheter was connected to a pressure transducer and an injection pump. The animals were placed in metabolism cages which allowed measurement of the volume of urine. Physiological saline solution was infused into the emptied bladder (10 ml/h) and the bladder pressure and micturition volume were recorded continuously. After a stabilization phase, a 20 minute phase, which was characterized by normal, reproducible micturition cycles, was recorded. The following parameters, inter alia, were determined: • threshold pressure (TP, bladder pressure immediately before micturition), • bladder capacity (BC, residual volume after preceding micturition plus volume of the infused solution during the filling phase), • intercontraction interval (ICI, the interval of time between micturitions).

rat = rat model of rhythmic bladder contractions; Nippon-Shinyaku, WO 98/46216; cited from earlier work
[3] = after OxyHb 2.5 × 10^−4 M, n = 5, average ± standard deviation
[4] = pre-value before OxyHb 2.5 × 10^−4 M, n = 5, average ± standard deviation
[5] = 1.0 mg/kg iv, action maximum, mean of 3 micturition cycles
[6] = mean of at least 3 independent experiments

COc1cccc([C@@]2(O)C[C@@H](O)CC[C@@H]2CN(C)C)c1.Cl (racemic) [Compound 27, (1RS,3SR,6RS)-6-dimethylaminomethyl-1-(3-methoxy-phenyl)-cyclohexane-1,3-diol, hydrochloride]
minimal effective dose (naive female rats; mean of at least 2 experiments): 115 mg/kg

oxyhaemoglobin [OxyHb]
BC bladder capacity, change (diff) in comparison with the pre-value ([1]; OxyHb 2.5 × 10^−4 M alone): diff: −29.3% | ICI intercontraction interval, change (diff) in comparison with the pre-value ([1]; OxyHb 2.5 × 10^−4 M alone): diff: −32.9% | MP micturition pressure, change (diff.) in comparison with the pre-value ([1]; OxyHb 2.5 × 10^−4 M alone): diff.: +64.4% | TP threshold pressure, change (diff.) in comparison with the pre-value ([1]; OxyHb 2.5 × 10^−4 M alone): diff.: +12.8% | BC bladder capacity, after (a) [1, 3]: a: 0.65 ± 0.06 ml | ICI intercontraction interval, after (a) [1, 3]: a: 3.33 ± 0.18 min | MP micturition pressure, after (a) [1, 3]: a: 97 ± 5 cm H2O | TP threshold pressure, after (a) [1, 3]: a: 9.84 ± 1.56 cm H2O | BC bladder capacity, before (b) [1, 4]: b: 0.92 ± 0.10 ml | ICI intercontraction interval, before (b) [1, 4]: b: 4.96 ± 0.33 min | MP micturition pressure, before (b) [1, 4]: b: 59 ± 8 cm H2O | TP threshold pressure, before (b) [1, 4]: b: 8.72 ± 1.31 cm H2O

CC[C@](O)(c1cccc(SC)c1)[C@H](C)CN(C)C.Cl (racemic) [Compound 5, (2RS,3RS)-1-dimethylamino-2-methyl-3-(3-methylsulfanyl-phenyl)-pentan-3-ol, hydrochloride]
minimal effective dose (naive female rats; mean of at least 2 experiments): 2.3 mg/kg

COc1cccc([C@@]2(O)C[C@H](O)CC[C@@H]2CN(C)C)c1.Cl (racemic) [Compound 24, (1RS,3RS,6RS)-6-dimethylaminomethyl-1-(3-methoxy-phenyl)-cyclohexane-1,3-diol, hydrochloride]
BC bladder capacity, change relative to the pre-value [2, 5]: −8.0% | ICI intercontraction interval, change relative to the pre-value [2, 5]: −15% ** | TP threshold pressure, change relative to the pre-value [2, 5]: +44.0% *** | BC bladder capacity, change relative to the pre-value ([2]; 3.0 mg/kg iv): −16.0% * | ICI interconnection interval, change relative to the pre-value ([2]; 3.0 mg/kg iv): −16% * | TP threshold pressure, change relative to the pre-value ([2]; 3.0 mg/kg iv): +94.0% ** | BC bladder capacity, change relative to the pre-value ([2]; 5.0 mg/kg iv): −26.0% * | ICI interconnection interval, change relative to the pre-value ([2]; 5.0 mg/kg iv): −21.2% | TP threshold pressure, change relative to the pre-value ([2]; 5.0 mg/kg iv): +69.0% *

CCOC(=O)C1(c2ccccc2)CCC=CC1N(C)C (centres unmarked) [tilidine, reference compound]
minimal effective dose (naive female rats; [6]): 0.5 mg/kg

CN(C)C[C@@H]1CCCC[C@H]1c1cccc(O)c1.Cl [Compound 20, (−)-(1R,2R)-3-(2-dimethylaminomethyl-cyclohexyl)-phenol, hydrochloride]
minimal effective dose (naive female rats; mean of at least 2 experiments): 0.5 mg/kg

CC[C@@](O)(c1cccc(OC)c1)[C@@H](C)CN(C)C.Cl [Compound 21, (−)-(2S,3S)-1-dimethylamino-3-(3-methoxy-phenyl)-2-methyl-pentan-3-ol, hydrochloride]
action on bladder regulation (in words) [2]: does not contribute to the action

CC[C@](O)(c1ccc(Cl)c(Cl)c1)[C@H](C)CN(C)C.Cl (racemic) [Compound 3, (2RS,3RS)-3-(3,4-dichlorophenyl)-1-dimethylamino-2-methyl-pentan-3-ol, hydrochloride]
Lowest dose at which for the first time contractions were absent over a period of 10 minutes (naive female rats; mean of at least 2 experiments): 23.3 mg/kg

CCC(O)(c1cccc(O)c1)C(C)CN(C)C.Cl (racemic) [Compound 7, (2RS,3RS)-3-(3-dimethylamino-1-ethyl-1-hydroxy-2-methyl-propyl)-phenol, hydrochloride]
BC bladder capacity, change relative to the pre-value ([2]; 0.3 mg/kg iv): +32% * | ICI intercontraction interval, change relative to the pre-value ([2]; 0.3 mg/kg iv): +28% * | TP threshold pressure, change relative to the pre-value ([2]; 0.3 mg/kg iv): +95% **

CCC1(c2cccc(O)c2)CCCCN(C)C1 (centres unmarked) [meptazinol, reference compound]
minimal effective dose (naive female rats; [6]): 1 mg/kg

CC[C@](OC(C)=O)(c1cccc(OC)c1)[C@H](C)CN(C)C.Cl [Compound 12, (+)-(1R,2R)-acetic acid 3-dimethylamino-1-ethyl-1-(3-methoxy-phenyl)-2-methyl-propyl ester, hydrochloride]
minimal effective dose (naive female rats; mean of at least 2 experiments): 30 mg/kg

C[C@H](CN(C)C)[C@@](C)(O)c1cccc(O)c1.Cl (racemic) [Compound 8, (1RS,2RS)-3-(3-dimethylamino-1-hydroxy-1,2-dimethyl-propyl)-phenol, hydrochloride]
BC bladder capacity, change relative to the pre-value [2, 5]: +7% | ICI intercontraction interval, change relative to the pre-value [2, 5]: +14.4% | TP threshold pressure, change relative to the pre-value [2, 5]: +60% **

CCC(O)(c1cccc(OC)c1)C1(CN(C)C)CCCCC1.Cl (racemic) [Compound 13, (1RS)-1-(1-dimethylaminomethyl-cyclohexyl)-1-(3-methoxy-phenyl)-propan-1-ol, hydrochloride]
minimal effective dose (naive female rats; mean of at least 2 experiments): 20 mg/kg

COc1cccc([C@@]2(O)C[C@H](O)CC[C@@H]2CN(C)C)c1.Cl [Compound 25, (+)-(1R,3R,6R)-6-dimethylaminomethyl-1-(3-methoxy-phenyl)-cyclohexane-1,3-diol, hydrochloride]
BC bladder capacity, change relative to the pre-value ([2]; 1.5 mg/kg iv): −14.0% * | ICI interconnection interval, change relative to the pre-value ([2]; 1.5 mg/kg iv): −9.0 * % | TP threshold pressure, change relative to the pre-value ([2]; 1.5 mg/kg iv): +62.0% *

CN(C)C[C@H]1CC[C@@H](O)C[C@]1(O)c1cccc(O)c1.Cl (racemic) [Compound 26, (1RS,3RS,6RS)-6-dimethylaminomethyl-1-(3-hydroxy-phenyl)-cyclohexane-1,3-diol, hydrochloride]
BC bladder capacity, change relative to the pre-value ([2]; 3.0 mg/kg iv): +29.0% * | ICI interconnection interval, change relative to the pre-value ([2]; 3.0 mg/kg iv): +27.0% * | TP threshold pressure, change relative to the pre-value ([2]; 3.0 mg/kg iv): +86.0% ***

CN(C)C[C@H]1CCCC[C@@H]1c1cccc(O)c1.Cl [Compound 19, (+)-(1S,2S)-3-(2-dimethylaminomethyl-cyclohexyl)-phenol, hydrochloride]
minimal effective dose (naive female rats; mean of at least 2 experiments): 0.1 mg/kg

C[C@H](CN(C)C)[C@@](C)(O)c1cccc(O)c1.Cl [Compound 9, (+)-(1R,2R)-3-(3-dimethylamino-1-hydroxy-1,2-dimethyl-propyl)-phenol, hydrochloride]
BC bladder capacity, change relative to the pre-value ([2]; 0.5 mg/kg iv): +50% ** | ICI intercontraction interval, change relative to the pre-value ([2]; 0.5 mg/kg iv): +21% * | TP threshold pressure, change relative to the pre-value ([2]; 0.5 mg/kg iv): +56% **

C[C@H](CN(C)C)[C@@](C)(O)c1cccc(O)c1.Cl [Compound 10, (+)-(1R,2R)-3-(3-dimethylamino-1-hydroxy-1,2-dimethyl-propyl)-phenol, hydrochloride]
minimal effective dose (naive female rats; mean of at least 2 experiments): 0.2 mg/kg

CC[C@](O)(c1ccc(Cl)cc1)[C@H](C)CN(C)C.Cl (racemic) [Compound 14, (2RS,3RS)-3-(4-chlorophenyl)-1-dimethylamino-2-methyl-pentan-3-ol, hydrochloride]
minimal effective dose (naive female rats; mean of at least 2 experiments): 20 mg/kg

COc1cccc(C2(O)CCCCC2CN(C)C)c1 (racemic) [Compound 23, rac-tramadol, reference compound]
minimal effective dose (naive female rats; mean of at least 2 experiments): 5.3 mg/kg | effect on bladder function (in words) (rat): positive effect on bladder function

CC[C@](O)(c1cccc(OC)c1)[C@H](C)CN(C)C.Cl [Compound 2, (+)-(2R,3R)-1-dimethylamino-3-(3-methoxy-phenyl)-2-methyl-pentan-3-ol, hydrochloride]
action on bladder regulation (in words) [2]: effectively active

CN(C)C[C@H]1CC[C@@H](C(F)(F)F)C[C@]1(O)c1cccc(O)c1.Cl (racemic) [Compound 29, (1RS,2RS,5RS)-3-(2-dimethylaminomethyl-1-hydroxy-5-trifluoromethyl-cyclohexyl)-phenol, hydrochloride]
minimal effective dose (naive female rats; mean of at least 2 experiments): 23.3 mg/kg

CN(C)C[C@H]1CCCC[C@]1(F)c1cccc(O)c1.Cl [Compound 18, (+)-(1R,2R)-3-(2-dimethylaminomethyl-1-fluoro-cyclohexyl)-phenol, hydrochloride]
minimal effective dose (naive female rats; mean of at least 2 experiments): 0.2 mg/kg

CC[C@](O)(c1cccc(C(F)F)c1)[C@H](C)CN(C)C.Cl (racemic) [Compound 4, (2RS,3RS)-3-(3-difluoromethyl-phenyl)-1-dimethylamino-2-methyl-pentan-3-ol, hydrochloride]
minimal effective dose (naive female rats; mean of at least 2 experiments): 1.7 mg/kg

C[C@H]1CC[C@H](CN(C)C)[C@@](O)(c2cccc(O)c2)C1.Cl [Compound 28, (+)-(1R,2R,5S)-3-(2-dimethylaminomethyl-1-hydroxy-5-methyl-cyclohexyl)-phenol, hydrochloride]
minimal effective dose (naive female rats; mean of at least 2 experiments): 16.7 mg/kg

COc1cccc(C(O)(CCN(C)C)C(C)(C)C)c1.Cl (racemic) [Compound 6, (3RS)-1-dimethylamino-3-(3-methoxy-phenyl)-4,4-dimethyl-pentan-3-ol, hydrochloride]
Lowest dose at which for the first time contractions were absent over a period of 10 minutes (naive female rats; mean of at least 2 experiments): 16.7 mg/kg

Reference: US20050137194A1, “Combination of selected opioids with other active compounds for treatment of urinary incontinence” (Gruenenthal GmbH, priority 2002, published 2005)
